Results reported in patent US9409922B2, “Imidazopyridine macrocycles as inhibitors of human immunodeficiency virus replication” (priority 2014, dated 2016).

Tested on: NL-RLuc virus
Experiment: Inhibition of HIV replication: NL-RLuc reporter virus in MT-2 cells, luciferase readout
Assay type: cell-based
Conditions: MT-2 cells infected with NL-RLuc virus, 5 days of incubation, 10% FBS, at least 2 experiments
Source text: Inhibition of HIV Replication:
A recombinant NL-RLuc proviral clone was constructed in which a section of the nef gene from NL4-3 was replaced with the Renilla Luciferase gene. This virus is fully infectious and can undergo multiple cycles of replication in cell culture. In addition, the luciferous reporter provides a simple and easy method for quantitating the extent of virus growth and consequently, the antiviral activity of test compounds. The plasmid pNLRLuc contains the proviral NL-Rluc DNA cloned into pUC 18 at the PvuII site. The NL-RLuc virus was prepared by transfection of 293T cells with the plasmid pNLRLuc. Transfections were performed using the LipofectAMINE PLUS kit from Invitrogen (Carlsbad, Calif.) according to the manufacturer and the virus generated was titered in MT-2 cells. For susceptibility analyses, the titrated virus was used to infect MT-2 cells in the presence of compound, and after 5 days of incubation, cells were processed and quantitated for virus growth by the amount of expressed luciferase. Assay media was RPMI 1640 supplemented with 10% heat inactivated fetal bovine serum (FBS), 100 units/ml penicillin G/100 units/ml streptomycin, 10 mM HEPES buffer pH 7.55 and 2 mM L-glutamine. The results from at least 2 experiments were used to calculate the EC50 values. Luciferase was quantitated using the Dual Luciferase kit from Promega (Madison, Wis.). Susceptibility of viruses to compounds was determined by incubation in the presence of serial dilutions of the compound. The 50% effective concentration (EC50) was calculated by using the exponential form of the median effect equation where (Fa)=1/[1+(ED50/drug conc.)^m](Johnson V A, Byington R T. Infectivity Assay. In Techniques in HIV Research. ed. Aldovini A, Walker B D. 71-76. New York: Stockton Press. 1990).

[1] = Human immunodeficiency virus 1, MT2, 120 h

Compound | EC50 [1] | EC50
Cc1cc(F)c2c(c1)O[C@@H](C)CCCCOC1(C)CCN(CC1)c1c([C@H](OC(C)(C)C)C(=O)O)c(C)cc3nc(cn13)-c1cccc-2c1 [Example 21, (2S)-2-(tert-Butoxy)-2-[(22S)-16-fluoro-4,18,22,28-tetramethyl-21,27-dioxa-1,7,34-triazahexacyclo[26.2.2.1^6,^9.1^10,^14.0^2,^7.0^15,^20]tetratriaconta-2,4,6(34),8,10(33),11,13,15(20),16,18-decaen-3-yl]acetic acid] | 0.005 µM | 
Cc1ccc2c(c1)-c1cccc(c1)-c1nc3cc(C)c([C@H](OC(C)(C)C)C(=O)O)c(n3c1Cl)N1CCC(C)(CC1)OCCCC[C@H](C)O2 [Example 22, (2S)-2-(tert-Butoxy)-2-[(22S)-8-chloro-4,17,22,28-tetramethyl-21,27-dioxa-1,7,34-triazahexacyclo[26.2.2.1^6,^9.1^10,^14.0^2,^7.0^15,^20]tetratriaconta-2,4,6(34),8,10(33),11,13,15(20),16,18-decaen-3-yl]acetic acid] | 0.024 µM | 
Cc1cc2nc3c(Cl)n2c(c1[C@H](OC(C)(C)C)C(=O)O)N1CCC(C)(CC1)OCCCC[C@H](C)Oc1cc(F)c(F)cc1-c1cccc-3c1 [Example 23, (2S)-2-(tert-Butoxy)-2-[(22S)-8-chloro-17,18-difluoro-4,22,28-trimethyl-21,27-dioxa-1,7,34-triazahexacyclo[26.2.2.1^6,^9.1^10,^14.0^2,^7.0^15,^20]tetratriaconta-2,4,6(34),8,10(33),11,13,15(20),16,18-decaen-3-yl]acetic acid] | 0.019 µM | 
Cc1cc2c(cc1F)-c1cccc(c1)-c1nc3cc(C)c([C@H](OC(C)(C)C)C(=O)O)c(n3c1Cl)N1CCC(C)(CC1)OCCCC[C@H](C)O2 [Example 24, (2S)-2-(tert-Butoxy)-2-[(22S)-8-chloro-17-fluoro-4,18,22,28-tetramethyl-21,27-dioxa-1,7,34-triazahexacyclo[26.2.2.1^6,^9.1^10,^14.0^2,^7.0^15,^20]tetratriaconta-2,4,6(34),8,10(33),11,13,15(20),16,18-decaen-3-yl]acetic acid] | 0.02 µM | 
Cc1cc2c(cc1C)-c1cccc(c1)-c1nc3cc(C)c([C@H](OC(C)(C)C)C(=O)O)c(n3c1Cl)N1CCC(C)(CC1)OCCCC[C@H](C)O2 [Example 25, (2S)-2-(tert-Butoxy)-2-[(22S)-8-chloro-4,17,18,22,28-pentamethyl-21,27-dioxa-1,7,34-triazahexacyclo[26.2.2.1^6,^9.1^10,^14.0^2,^7.0^15,^20]tetratriaconta-2,4,6(34),8,10(33),11,13,15(20),16,18-decaen-3-yl]acetic acid] | 0.03 µM | 
Cc1cc2nc3c(F)n2c(c1[C@H](OC(C)(C)C)C(=O)O)N1CCC(C)(CC1)OCCCC[C@H](C)Oc1cc(F)c(F)cc1-c1cccc-3c1 [Example 26, (2S)-2-(tert-Butoxy)-2-[(22S)-8,17,18-trifluoro-4,22,28-trimethyl-21,27-dioxa-1,7,34-triazahexacyclo[26.2.2.1^6,^9.1^10,^14.0^2,^7.0^15,^20]tetratriaconta-2,4,6(34),8,10(33),11,13,15(20),16,18-decaen-3-yl]acetic acid] | 0.026 µM | 
Cc1cc2c(cc1F)-c1cccc(c1)-c1nc3cc(C)c([C@H](OC(C)(C)C)C(=O)O)c(n3c1Br)N1CCC(C)(CC1)OCCCC[C@H](C)O2 [Example 27, (2S)-2-[(22S)-8-Bromo-17-fluoro-4,18,22,28-tetramethyl-21,27-dioxa-1,7,34-triazahexacyclo[26.2.2.1^6,^9.1^10,^14.0^2,^7.0^15,^20]tetratriaconta-2,4,6(34),8,10(33),11,13,15(20),16,18-decaen-3-yl]-2-(tert-butoxy)acetic acid] | 0.013 µM | 
Cc1cc2c(cc1F)-c1cccc(c1)-c1nc3cc(C)c([C@H](OC(C)(C)C)C(=O)O)c(n3c1Br)N1CCC(C)(CC1)OCCCC[C@H](C)O2 [Example 28, (2S)-2-[(22S)-8-Bromo-17-fluoro-4,18,22,28-tetramethyl-21,27-dioxa-1,7,34-triazahexacyclo[26.2.2.1^6,^9.1^10,^14.0^2,^7.0^15,^20]tetratriaconta-2,4,6(34),8,10(33),11,13,15(20),16,18-decaen-3-yl]-2-(tert-butoxy)acetic acid] |  | 0.008 µM
Cc1cc2c(cc1F)-c1cccc(c1)-c1nc3c(Br)c(C)c([C@H](OC(C)(C)C)C(=O)O)c(n3c1Cl)N1CCC(C)(CC1)OCCCC[C@H](C)O2 [Example 29, (2S)-2-[(22S)-5-Bromo-8-chloro-17-fluoro-4,18,22,28-tetramethyl-21,27-dioxa-1,7,34-triazahexacyclo[26.2.2.1^6,^9.1^10,^14.0^2,^7.0^15,^20]tetratriaconta-2,4,6(34),8,10(33),11,13,15(20),16,18-decaen-3-yl]-2-(tert-butoxy)acetic acid] | 0.03 µM | 
Cc1cc2c(cc1F)-c1cccc(c1)-c1cn3c(c([C@H](OC(C)(C)C)C(=O)O)c(C)c(C)c3n1)N1CCC(C)(CC1)OCCCC[C@H](C)O2 [Example 30, (2S)-2-(tert-Butoxy)-2-[(22S)-17-fluoro-4,5,18,22,28-pentamethyl-21,27-dioxa-1,7,34-triazahexacyclo[26.2.2.1^6,^9.1^10,^14.0^2,^7.0^15,^20]tetratriaconta-2,4,6(34),8,10(33),11,13,15(20),16,18-decaen-3-yl]acetic acid] | 0.021 µM | 
Cc1cc2c(cc1F)-c1cccc(c1)-c1cn3c(c([C@H](OC(C)(C)C)C(=O)O)c(C)c(NS(C)(=O)=O)c3n1)N1CCC(C)(CC1)OCCCC[C@H](C)O2 [Example 31, (2S)-2-(tert-Butoxy)-2-[(22S)-17-fluoro-5-methanesulfonamido-4,18,22,28-tetramethyl-21,27-dioxa-1,7,34-triazahexacyclo[26.2.2.1^6,^9.1^10,^14.0^2,^7.0^15,^20]tetratriaconta-2,4,6(34),8,10(33),11,13,15(20),16,18-decaen-3-yl]acetic acid] | 0.019 µM | 
Cc1c([C@H](OC(C)(C)C)C(=O)O)c2n3cc(nc3c1Br)-c1cccc(c1)-c1cc(F)ccc1O[C@@H](C)CCCCOC1(C)CCN2CC1 [Example 32, (2S)-2-[(22S)-5-Bromo-17-fluoro-4,22,28-trimethyl-21,27-dioxa-1,7,34-triazahexacyclo[26.2.2.1^6,^9.1^10,^14.0^2,^7.0^15,^20]tetratriaconta-2,4,6(34),8,10(33),11,13,15(20),16,18-decaen-3-yl]-2-(tert-butoxy)acetic acid] | 0.01 µM | 
Cc1c([C@H](OC(C)(C)C)C(=O)O)c2n3cc(nc3c1C)-c1cccc(c1)-c1cc(F)ccc1O[C@@H](C)CCCCOC1(C)CCN2CC1 [Example 33, (2S)-2-(tert-Butoxy)-2-[(22S)-17-fluoro-4,5,22,28-tetramethyl-21,27-dioxa-1,7,34-triazahexacyclo[26.2.2.1^6,^9.1^10,^14.0^2,^7.0^15,^20]tetratriaconta-2,4,6(34),8,10(33),11,13,15(20),16,18-decaen-3-yl]acetic acid] | 0.025 µM | 
Cc1cc2nc3cn2c(c1[C@H](OC(C)(C)C)C(=O)O)N1CCC(C)(CC1)OC/C=C/C[C@H](C)Oc1c(F)cccc1-c1cccc-3c1 [Example 34, (2S)-2-(tert-Butoxy)-2-[(22S,24E)-19-fluoro-4,22,28-trimethyl-21,27-dioxa-1,7,34-triazahexacyclo[26.2.2.1^6,^9.1^10,^14.0^2,^7.0^15,^20]tetratriaconta-2,4,6(34),8,10(33),11,13,15(20),16,18,24-undecaen-3-yl]acetic acid] | 0.003 µM | 
Cc1cc2nc3cn2c(c1[C@H](OC(C)(C)C)C(=O)O)N1CCC(C)(CC1)OCCCC[C@H](C)Oc1c(F)cccc1-c1cccc-3c1 [Example 35, (2S)-2-(tert-Butoxy)-2-[(22S)-19-fluoro-4,22,28-trimethyl-21,27-dioxa-1,7,34-triazahexacyclo[26.2.2.1^6,^9.1^10,^14.0^2,^7.0^15,^20]tetratriaconta-2,4,6(34),8,10(33),11,13,15(20),16,18-decaen-3-yl]acetic acid] | 0.007 µM | 
Cc1c([C@H](OC(C)(C)C)C(=O)O)c2n3cc(nc3c1Br)-c1cccc(c1)-c1cccc(F)c1O[C@@H](C)CCCCOC1(C)CCN2CC1 [Example 36, (2S)-2-[(22S)-5-Bromo-19-fluoro-4,22,28-trimethyl-21,27-dioxa-1,7,34-triazahexacyclo[26.2.2.1^6,^9.1^10,^14.0^2,^7.0^15,^20]tetratriaconta-2,4,6(34),8,10(33),11,13,15(20),16,18-decaen-3-yl]-2-(tert-butoxy)acetic acid] | 0.01 µM | 
Cc1c([C@H](OC(C)(C)C)C(=O)O)c2n3cc(nc3c1C)-c1cccc(c1)-c1cccc(F)c1O[C@@H](C)CCCCOC1(C)CCN2CC1 [Example 37, (2S)-2-(tert-Butoxy)-2-[(22S)-19-fluoro-4,5,22,28-tetramethyl-21,27-dioxa-1,7,34-triazahexacyclo[26.2.2.1^6,^9.1^10,^14.0^2,^7.0^15,^20]tetratriaconta-2,4,6(34),8,10(33),11,13,15(20),16,18-decaen-3-yl]acetic acid] | 0.01 µM | 
